Measured values from US5760041A, “4-aminoquinazoline EGFR Inhibitors” (American Cyanamid Company, priority 1997, dated 1998).
Where two headings read alike, the source gives them in different places.

Key:
[1] = molecular target: T1, Epidermal Growth Factor Receptor Kinase (EGF-R) (Homo sapiens, UniProt P00533); test: Inhibition of Epidermal Growth Factor Receptor Kinase (EGF-R), phosphorylation of peptide substrate RR-SRC; type: biochemical; conditions: A431 membrane extract; average of number of tests
T1 construct: The enzyme was obtained as a membrane extract of A431 cells; (cells); host or cells: A431 cells (membrane extract)
T1 sequence (P00533 25-1210): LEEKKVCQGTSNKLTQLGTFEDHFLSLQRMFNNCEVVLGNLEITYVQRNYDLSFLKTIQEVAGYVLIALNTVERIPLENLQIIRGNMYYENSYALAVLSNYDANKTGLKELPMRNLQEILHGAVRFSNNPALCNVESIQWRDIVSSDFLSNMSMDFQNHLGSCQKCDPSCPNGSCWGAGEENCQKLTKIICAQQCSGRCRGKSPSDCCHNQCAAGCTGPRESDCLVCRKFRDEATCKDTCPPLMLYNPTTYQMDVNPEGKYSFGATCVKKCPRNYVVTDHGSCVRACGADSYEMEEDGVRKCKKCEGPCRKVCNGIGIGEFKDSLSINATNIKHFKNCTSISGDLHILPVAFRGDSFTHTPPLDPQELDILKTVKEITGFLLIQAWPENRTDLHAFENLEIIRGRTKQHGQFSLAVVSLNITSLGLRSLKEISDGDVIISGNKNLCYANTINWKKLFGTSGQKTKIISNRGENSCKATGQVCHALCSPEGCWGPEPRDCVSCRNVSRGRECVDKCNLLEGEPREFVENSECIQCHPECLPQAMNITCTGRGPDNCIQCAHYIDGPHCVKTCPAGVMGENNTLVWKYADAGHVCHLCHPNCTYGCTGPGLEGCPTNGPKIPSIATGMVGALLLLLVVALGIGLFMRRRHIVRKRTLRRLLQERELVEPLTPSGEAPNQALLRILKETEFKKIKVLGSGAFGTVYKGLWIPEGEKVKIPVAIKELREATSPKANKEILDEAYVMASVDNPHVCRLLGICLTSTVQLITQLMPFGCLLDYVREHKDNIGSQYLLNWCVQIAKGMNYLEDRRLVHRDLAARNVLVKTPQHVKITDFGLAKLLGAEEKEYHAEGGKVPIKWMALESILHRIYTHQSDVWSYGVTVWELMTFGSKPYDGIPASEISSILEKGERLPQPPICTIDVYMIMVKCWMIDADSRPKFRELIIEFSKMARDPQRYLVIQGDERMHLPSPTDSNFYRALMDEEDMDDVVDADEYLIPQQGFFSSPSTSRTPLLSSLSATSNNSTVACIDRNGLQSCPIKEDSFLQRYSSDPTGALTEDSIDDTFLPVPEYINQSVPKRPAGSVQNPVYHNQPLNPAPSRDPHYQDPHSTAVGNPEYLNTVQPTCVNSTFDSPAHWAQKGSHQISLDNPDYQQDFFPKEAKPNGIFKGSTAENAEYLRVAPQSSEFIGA
T1 sequence (P01133 971-1023 partner limits assumed): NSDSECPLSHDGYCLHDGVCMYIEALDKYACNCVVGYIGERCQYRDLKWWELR
Procedure: The % inhibition of the test compound was determined for at least three different concentrations and the IC50 value was evaluated from the dose response curve.
The CPM values were corrected for the background counts produced by ATP in the absence of the enzymatic reaction.

NHEK cells = test: Inhibition of cell growth, [3H]-thymidine incorporation, NHEK; type: cell-based; conditions: Homo sapiens, read-out: IC50, NHEK
Procedure: (§1) Representative compounds of this invention were evaluated for their ability to inhibit the growth of the cell lines described below in vitro. The inhibition is quantitated by measuring the decrease in the incorporation of radio-labeled thymidine when the cells are grown in the presence of the inhibitor. A431 and SKBR3 cell lines are obtained from American Type Culture Collection, Rockville, Md. […] NHEK cells are obtained from Clonetics (San Diego, Calif.). Cells were routinely grown in a humidified incubator in 5% CO2 in air.
(§2) Cells were seeded at 10,000 cells/well in 96 well plates in complete media and allowed to grow to log phase. […] After overnight incubation in low serum (or EGF lacking) media, the compounds to be evaluated were added and cells remained in the presence of compounds for 48 to 72 hours. Media with test compound was then removed and complete media was added back. The cells were allowed to grow for 18 hours. This is followed by incubation in [^3 H]thymidine (1mCi/ml in serum/EGF media) for 4 hours. Cells were lysed in 0.5M NaOH for at least 30 min at 37° C. and radioactivity analyzed.
(§3) The cell growth inhibition data is provided below in TABLE 3. […] The % inhibition of the compound evaluated was determined for at least three different concentrations and the IC50 value evaluated from the dose response curve.
(§4) CPM(control) is in units of counts per minute and is a number expressing the amount of [^3 H]thymidine incorporated onto the DNA when cells are grown in the absence of test compound as measured by liquid scintillation counting.

SKBR3 cells = test: Inhibition of cell growth, [3H]-thymidine incorporation, SKBR3; type: cell-based; conditions: Homo sapiens
Procedure: Representative compounds of this invention were evaluated for their ability to inhibit the growth of the cell lines described below in vitro. The inhibition is quantitated by measuring the decrease in the incorporation of radio-labeled thymidine when the cells are grown in the presence of the inhibitor. A431 and SKBR3 cell lines are obtained from American Type Culture Collection, Rockville, Md. […] NHEK cells are obtained from Clonetics (San Diego, Calif.). Cells were routinely grown in a humidified incubator in 5% CO2 in air. […] Cells were seeded at 10,000 cells/well in 96 well plates in complete media and allowed to grow to log phase. […] After overnight incubation in low serum (or EGF lacking) media, the compounds to be evaluated were added and cells remained in the presence of compounds for 48 to 72 hours. Media with test compound was then removed and complete media was added back. The cells were allowed to grow for 18 hours. This is followed by incubation in [^3 H]thymidine (1mCi/ml in serum/EGF media) for 4 hours. Cells were lysed in 0.5M NaOH for at least 30 min at 37° C. and radioactivity analyzed. The cell growth inhibition data is provided below in TABLE 3. […] The % inhibition of the compound evaluated was determined for at least three different concentrations and the IC50 value evaluated from the dose response curve. […] CPM(control) is in units of counts per minute and is a number expressing the amount of [^3 H]thymidine incorporated onto the DNA when cells are grown in the absence of test compound as measured by liquid scintillation counting.

A431 cells = test: Inhibition of cell growth, [3H]-thymidine incorporation, A431; type: cell-based; conditions: Homo sapiens, A-431, read-out: IC50, A431
Procedure: as §1
Cells were seeded at 10,000 cells/well in 96 well plates in complete media and allowed to grow to log phase. […] After overnight incubation in low serum (or EGF lacking) media, the compounds to be evaluated were added and cells remained in the presence of compounds for 48 to 72 hours. […] Cells were lysed in 0.5M NaOH for at least 30 min at 37° C. and radioactivity analyzed.
as §3, §4

Neu-3T3 cells = test: Inhibition of cell growth, [3H]-thymidine incorporation, Neu-3T3; type: cell-based; conditions: Mus musculus, read-out: IC50, NEU-3T3
Procedure: as §1, §2, §3, §4

[2] = system: human epidermoid tumors (A431); test: In vivo inhibition of the growth of human epidermoid tumors (A431) in mice; conditions: for inhibition of tumor growth in vivo (in words): summary of Tables 4-7
Procedure: BALB/c nu/nu female mice (Charles River, Wilmington, Mass.) were used in the in vivo standard pharmacological test procedures. […] When tumors attained a mass of between 100 and 150 mg, the mice were randomized into treatment groups (day zero). Mice were treated IP once a day either on days 1, 5, and 9 or on days 1 through 10 post staging with doses of either 80, 40 or 20 mg/kg/dose of the compound to be evaluated in 0.2% Klucel. Control animals received no drug. Tumor mass was determined every 7 days [(length×width^2)/2] for 28 days post staging. Relative tumor growth (Mean tumor mass on day 7, 14, 21, and 28 divided by the mean tumor mass on day zero) is determined for each treatment group. The % T/C (Tumor/Control) is determined by dividing the relative tumor growth of the treated group by the relative tumor growth of the placebo group and multiplying by 100.

[3] = SK-BR-3, 48 to 72 hours with compound, read-out: IC50, SKBR3
[4] = Table 7, 20 mg/kg IP, days through 10
[5] = Table 7, 80 mg/kg IP, days 1, 5, and 9
[6] = Table 4, 20 mg/kg/dose IP, days 1, 5, 9
[7] = Table 4, 20 mg/kg/dose IP, days 1 through 10
[8] = Table 4, 40 mg/kg/dose IP, days 1, 5, 9
[9] = Table 4, 80 mg/kg/dose IP, days 1, 5, 9
[10] = Table 5, 20 mg/kg/dose IP, days 1 through 15
[11] = Table 6, 20 mg/kg IP, day 1 through 10
[12] = Table 6, 20 mg/kg IP, day 1 through 10, * p < 0.01
[13] = Table 6, 80 mg/kg IP, days 1, 5, and 9
[14] = Table 6, 80 mg/kg IP, days 1, 5, and 9, * p < 0.01
[15] = Table 7, 80 mg/kg IP, days 1, 5, and 9, * p < 0.01

CC=CC=CC(=O)Nc1ccc2ncnc(Nc3cccc(Br)c3)c2c1 [Example 11, N-[4-[(3-Bromophenyl)amino]-6-quinazolinyl]-2,4-hexadienamide]
IC50 [1]: 56 nM | IC50 (NHEK cells): 850 nM | IC50 (SKBR3 cells; [3]): 4000 nM | IC50 (A431 cells): 800 nM | IC50 (Neu-3T3 cells; 48 to 72 hours with compound): 400 nM

CCCC(=O)Nc1ccc2ncnc(Nc3cccc(Br)c3)c2c1 [Comparator B, N-[4-[(3-bromophenyl)amino]-6-quinazolinyl]-butanamide, reference compound]
inhibition of tumor growth in vivo (in words) ([2]; A431 tumors in mice): failed to significantly reduce tumor growth at both doses tested | RTG Day 7 [2, 4]: 2.90 | RTG Day 14 [2, 4]: 4.19 | RTG Day 21 [2, 4]: 5.62 | RTG Day 28 [2, 4]: 8.04 | S/T (No. Survivors/No. Treated on Day +28) [2, 4]: 5/5 | RTG Day 7 [2, 5]: 3.37 | RTG Day 14 [2, 5]: 5.43 | RTG Day 21 [2, 5]: 6.21 | RTG Day 28 [2, 5]: 10.26 | S/T (No. Survivors/No. Treated on Day +28) [2, 5]: 5/5

O=C(O)/C=C/C(=O)Nc1ccc2ncnc(Nc3cccc(Br)c3)c2c1 [Example 10, 4-[[4-[(3-Bromophenyl)amino]-6-quinazolinyl]amino]-4-oxo-(E)-2-butenoic acid]
IC50 (Neu-3T3 cells): 15000 nM

CC#CC(=O)Nc1ccc2ncnc(Nc3cccc(Br)c3)c2c1 [Example 9, N-[4-[(3-Bromophenyl)amino]-6-quinazolinyl]-2-butynamide]
inhibition of tumor growth in vivo (in words) ([2]; A431 tumors in mice): significantly (p<0.01) inhibited human epidermoid tumor growth in vivo | % T/C Day 7 [2, 6]: 47% | % T/C Day 16 [2, 6]: 34% | % T/C Day 21 [2, 6]: 38% | % T/C Day 28 [2, 6]: 41% | RTG Day 7 [2, 6]: 1.72 | RTG Day 16 [2, 6]: 2.69 | RTG Day 21 [2, 6]: 4.33 | RTG Day 28 [2, 6]: 6.18 | S/T (No. Survivors/No. Treated on Day +28) [2, 6]: 5/5 | % T/C Day 7 [2, 7]: 20% | % T/C Day 16 [2, 7]: 13% | % T/C Day 21 [2, 7]: 11% | % T/C Day 28 [2, 7]: 17% | RTG Day 7 [2, 7]: 0.75 | RTG Day 16 [2, 7]: 1.01 | RTG Day 21 [2, 7]: 1.25 | RTG Day 28 [2, 7]: 2.53 | S/T (No. Survivors/No. Treated on Day +28) [2, 7]: 5/5 | % T/C Day 7 [2, 8]: 40% | % T/C Day 16 [2, 8]: 28% | % T/C Day 21 [2, 8]: 27% | % T/C Day 28 [2, 8]: 27% | RTG Day 7 [2, 8]: 1.48 | RTG Day 16 [2, 8]: 2.23 | RTG Day 21 [2, 8]: 3.05 | RTG Day 28 [2, 8]: 4.04 | S/T (No. Survivors/No. Treated on Day +28) [2, 8]: 5/5 | % T/C Day 7 [2, 9]: 18% | % T/C Day 16 [2, 9]: 11% | % T/C Day 21 [2, 9]: 9% | % T/C Day 28 [2, 9]: 9% | RTG Day 7 [2, 9]: 0.71 | RTG Day 16 [2, 9]: 0.91 | RTG Day 21 [2, 9]: 1.07 | RTG Day 28 [2, 9]: 1.36 | S/T (No. Survivors/No. Treated on Day +28) [2, 9]: 5/5 | % T/C Day 7 [2, 10]: 35% | % T/C Day 14 [2, 10]: 22% | % T/C Day 21 [2, 10]: 19% | % T/C Day 28 [2, 10]: 22% | RTG Day 7 [2, 10]: 1.11 | RTG Day 14 [2, 10]: 1.26 | RTG Day 21 [2, 10]: 1.51 | RTG Day 28 [2, 10]: 2.55 | S/T (No. Survivors/No. Treated on Day +28) [2, 10]: 14/15 | RTG Day 7 [2, 11]: 0.79 | RTG Day 14 [2, 11]: 1.39 | RTG Day 21 [2, 11]: 2.55 | S/T (No. Survivors/No. Treated on Day +21) [2, 11]: 10/10 | % T/C Day 7 [2, 12]: 14% | % T/C Day 14 [2, 12]: 12% | % T/C Day 21 [2, 12]: 16% | RTG Day 7 [2, 13]: 1.25 | RTG Day 14 [2, 13]: 2.50 | RTG Day 21 [2, 13]: 3.77 | S/T (No. Survivors/No. Treated on Day +21) [2, 13]: 10/10 | % T/C Day 7 [2, 14]: 18% | % T/C Day 14 [2, 14]: 21% | % T/C Day 21 [2, 14]: 24% | RTG Day 7 [2, 5]: 0.89 | RTG Day 14 [2, 5]: 1.50 | RTG Day 21 [2, 5]: 2.44 | RTG Day 28 [2, 5]: 3.45 | S/T (No. Survivors/No. Treated on Day +28) [2, 5]: 5/5 | % T/C Day 7 [2, 15]: 25% | % T/C Day 14 [2, 15]: 27% | % T/C Day 21 [2, 15]: 42% | % T/C Day 28 [2, 15]: 45% | IC50 (NHEK cells): 2 nM | IC50 (SKBR3 cells; SK-BR-3, read-out: IC50, SKBR3): 1060 nM

C=CC(=O)Nc1cc2c(Nc3cccc(C)c3)ncnc2cc1F [Comparator A, N-[4-[(3-methylphenyl)amino]-6-quinazolinyl]-7-fluoro-2-propenamide, reference compound]
activity relative to the compound of Example 9 (in words) ([2]; A431 tumors in mice, Tables 6 and 7): substantially less active than the compound of Example 9 | inhibition of tumor growth in vivo (in words) ([2]; A431 tumors in mice): failed to significantly reduce tumor growth at both doses tested | RTG Day 7 [2, 11]: 4.82 | RTG Day 14 [2, 11]: 7.36 | RTG Day 21 [2, 11]: 8.75 | S/T (No. Survivors/No. Treated on Day +21) [2, 11]: 9/10 | % T/C Day 7 [2, 12]: 87% | % T/C Day 14 [2, 12]: 63% | % T/C Day 21 [2, 12]: 56% | RTG Day 7 [2, 13]: 3.39 | RTG Day 14 [2, 13]: 5.60 | RTG Day 21 [2, 13]: 7.68 | S/T (No. Survivors/No. Treated on Day +21) [2, 13]: 10/10 | % T/C Day 7 [2, 14]: 61% | % T/C Day 14 [2, 14]: 48% | % T/C Day 21 [2, 14]: 48%

COc1cc2ncnc(Nc3cccc(Br)c3)c2cc1OC [N-(3-bromophenyl)-6,7-dimethoxy-4-quinazolinamine, reference compound]
inhibition of tumor growth in vivo (in words) ([2]; A431 tumors in mice): devoid of antineoplastic activity | % T/C Day 7 [2, 10]: 95% | % T/C Day 14 [2, 10]: 116% | % T/C Day 21 [2, 10]: 128% | % T/C Day 28 [2, 10]: 140% | RTG Day 7 [2, 10]: 3.03 | RTG Day 14 [2, 10]: 6.58 | RTG Day 21 [2, 10]: 10.5 | RTG Day 28 [2, 10]: 14.47 | S/T (No. Survivors/No. Treated on Day +28) [2, 10]: 15/15

O=C(C#Cc1ccccc1)Nc1ccc2ncnc(Nc3cccc(Br)c3)c2c1 [Example 14, N-[4-[(3-bromophenyl)amino]-6-quinazolinyl]-(3-phenyl-2-propynamide)]
IC50 [1]: 1000 nM

O=C(O)/C=C\C(=O)Nc1ccc2ncnc(Nc3cccc(Br)c3)c2c1 [Example 4, 4-[[4-[(3-Bromophenyl)amino]-6-quinazolinyl]amino]-4-oxo-(Z)-2-butenoic acid]
IC50 (NHEK cells): 170 nM

CC(C)=CC(=O)Nc1ccc2ncnc(Nc3cccc(Br)c3)c2c1 [Example 6, N-[4-[(3-Bromophenyl)amino]-6-quinazolinyl]-3-methyl-2-butenamide]
IC50 (SKBR3 cells; [3]): > 50000 nM | IC50 (Neu-3T3 cells; 48 to 72 hours with compound): > 50000 nM
